# According to patent US4497742A, “Isomerization of β-lactam compounds” (Takeda Chemical Industries, Ltd., priority 1981, dated 1985):
# Where a name gives a salt, the structure may show the parent alone. Read-outs that look alike come from different tables or passages of the source.
# Tests used:
# [1] = test system: Proteus vulgaris IFO 3988; test: Antimicrobial spectrum (MIC), Proteus vulgaris IFO 3988; assay type: cell-based; conditions: IFO3988
# [2] = test system: Staphylococcus aureus FDA 209P; test: Antimicrobial spectrum (MIC), Staphylococcus aureus FDA 209P; assay type: cell-based; conditions: FDA209P
# [3] = target: T1, beta-Lactamase (Enterobacter cloacae, UniProt P05364); test: beta-Lactamase-inhibitory activity, producing strain Enterobacter cloacae TN 1282; assay type: biochemical; conditions: read-out: beta-Lactamase-inhibitory activity [1D50] (converted)
# T1 construct: endogenous in cells; host or cells: Enterobacter cloacae TN 1282 (producing strain)
# T1 sequence (P05364 21-381): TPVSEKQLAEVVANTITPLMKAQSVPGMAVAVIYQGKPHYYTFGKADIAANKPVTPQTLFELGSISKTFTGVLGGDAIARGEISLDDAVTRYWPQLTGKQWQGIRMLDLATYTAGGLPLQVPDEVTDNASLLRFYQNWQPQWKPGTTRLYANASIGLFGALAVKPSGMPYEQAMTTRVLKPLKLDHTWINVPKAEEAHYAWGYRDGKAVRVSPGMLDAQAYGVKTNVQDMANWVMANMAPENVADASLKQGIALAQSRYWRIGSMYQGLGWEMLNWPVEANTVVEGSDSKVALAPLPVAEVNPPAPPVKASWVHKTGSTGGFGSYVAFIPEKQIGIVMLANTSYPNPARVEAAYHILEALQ
# [4] = target: beta-Lactamase; test: beta-Lactamase-inhibitory activity, producing strain Proteus vulgaris GN 4413; assay type: biochemical
# [5] = target: T2, beta-Lactamase (Staphylococcus aureus, UniProt P00807); test: beta-Lactamase-inhibitory activity, producing strain Staphylococcus aureus 1840; assay type: biochemical; conditions: read-out: beta-Lactamase-inhibitory activity [1D50] (converted)
# T2 construct: endogenous in cells; host or cells: Staphylococcus aureus 1840 (producing strain)
# T2 sequence (P00807 25-281): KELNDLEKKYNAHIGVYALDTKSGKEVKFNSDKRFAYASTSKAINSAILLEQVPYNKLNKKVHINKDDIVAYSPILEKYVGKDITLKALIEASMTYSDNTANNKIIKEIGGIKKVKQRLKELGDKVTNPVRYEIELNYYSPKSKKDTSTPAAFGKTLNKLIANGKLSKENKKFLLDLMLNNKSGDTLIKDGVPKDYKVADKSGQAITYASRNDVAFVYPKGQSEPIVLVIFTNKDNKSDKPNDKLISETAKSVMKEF
# [6] = test system: Salmonella typhimurium IFO 12529; test: Antimicrobial spectrum (MIC), Salmonella typhimurium IFO 12529; assay type: cell-based; conditions: Salmonella enterica
# [7] = test system: Escherichia coli NIHJ J2C; test: Antimicrobial spectrum (MIC), Escherichia coli NIHJ J2C; assay type: cell-based; conditions: NIHJJ2C
# [8] = test system: beta-Lactamase; test: beta-Lactamase-inhibitory activity, producing strain Escherichia coli TN 713; assay type: biochemical
# [9] = Proteus vulgaris IFO 3988, read-out: MIC
smiles,measurement,setting,value
"CC(=O)N/C=C\[S@@+]([O-])C1=C(C(=O)O)N2C(=O)[C@@H](C(C)(C)OS(=O)(=O)O)[C@H]2C1 [Ib, [5R, 6R]-3-[(Z)-2-acetamidoethenyl-(R)-sulfinyl]-6-(1-hydroxysulfonyloxy-1-methylethyl)-7-oxo-1-azabicyclo (3,2,0)-hept-2-ene-2-carboxylic acid disodium salt]",MIC,[1]; [9],40 µg/mL
same,MIC,[2],2.5 µg/mL
same,IC50,[3],36 nM
same,beta-Lactamase-inhibitory activity [1D50],[4],0.00055 µg/mL
same,IC50,[5],568 nM
same,MIC,[6],20 µg/mL
same,MIC,[7],20 µg/mL
same,beta-Lactamase-inhibitory activity [1D50],[8],0.0001175 µg/mL
"CC(=O)N/C=C\SC1=C(C(=O)O)N2C(=O)[C@@H](C(C)(C)OS(=O)(=O)O)[C@H]2C1 [Ih, [5R, 6R]-3-[(Z)-2-acetamidoethenyl-thio]-6-[1-hydroxysulfonyloxy-1-methyl-ethyl]-7-oxo-1-azabicyclo(3,2,0)-hept-2-ene-2-carboxylic acid disodium salt]",MIC,[1]; [9],< 40 µg/mL
same,MIC,[2],2.5 µg/mL
same,IC50,[3],7.87 nM
same,beta-Lactamase-inhibitory activity [1D50],[4],0.0038 µg/mL
same,IC50,[5],2460 nM
same,MIC,[6],20 µg/mL
same,MIC,[7],40 µg/mL
same,beta-Lactamase-inhibitory activity [1D50],[8],0.017 µg/mL
"CC(=O)N/C=C\SC1=C(C(=O)[O-])N2C(=O)[C@@H](C(C)(C)O)[C@H]2C1.[Na+] [Ig, sodium [5R, 6R]-3-[(Z)-2-acetamidoethenyl-thio]-6-[1-hydroxy-1-methyl-ethyl]-7-oxo-1-azabicyclo(3,2,0)-hept-2-ene-2-carboxylate]",MIC,[1]; Proteus vulgaris,5 µg/mL
same,MIC,[2],0.625 µg/mL
same,IC50,[3],86.1 nM
same,beta-Lactamase-inhibitory activity [1D50],[4],0.017 µg/mL
same,MIC,[6],2.5 µg/mL
same,MIC,[7],2.5 µg/mL
same,beta-Lactamase-inhibitory activity [1D50],[8],0.010 µg/mL
"CC(=O)N/C=C\[S@@+]([O-])C1=C(C(=O)[O-])N2C(=O)[C@@H](C(C)(C)O)[C@H]2C1.[Na+] [Ia, sodium [5R, 6R]-3-[(Z)-2-acetamidoethenyl-(R)-sulfinyl]-6-[1-hydroxy-1-methylethyl]-7-oxo-1-azabicyclo(3,2,0)-hept-2-ene-2-carboxylate]",MIC,[2],0.39 µg/mL
same,IC50,[3],13.7 nM
same,beta-Lactamase-inhibitory activity [1D50],[4],0.00105 µg/mL
same,IC50,[5],151 nM
same,beta-Lactamase-inhibitory activity [1D50],[8],0.0016 µg/mL
